The subject of one assay is V79. Kind of assay: Cytotoxicity against chinese hamster V79 cells. The format is cell-based. The settings on record: Cricetulus griseus.
Assay [1] concerns L1210. Kind of assay: Cytotoxicity against mouse L1210 cells. The class given is functional, cell-based.
Assay [2] concerns L1210. Briefly: Cytotoxicity against mouse L1210 cells assessed as decrease in cell viability at 5 ug. The format is functional.
The subject of assay [3] is Micrococcus luteus. Briefly: Antibacterial activity against Micrococcus luteus assessed as inhibition zone at 20 ug. The class given is functional. The settings on record: read-out: IZ.
Assay [4] can be described thus: Inhibition of protein kinase A (unknown origin). Also noted: species or system Homo sapiens.
A further assay relates to SF-268. Kind of assay: Cytotoxicity against human SF268 cells assessed as cell killing at 50 uM relative to control. The format is functional.
Another assay concerns Bacillus subtilis. Briefly: Antibacterial activity against Bacillus subtilis ATCC 6051 after 24 hrs by serial dilution method. The format is functional. As to conditions: ATCC 6051, 24 h.
Assay [5] relates to Escherichia coli. Kind of assay: Antibacterial activity against Escherichia coli ATCC 10536 after 24 hrs by serial dilution method. The settings on record: ATCC 10536, 24 h. The class given is functional.
The subject of a further assay is Pseudomonas aeruginosa. Briefly: Antibacterial activity against Pseudomonas aeruginosa ATCC 10145 after 24 hrs by serial dilution method. The format is functional. As to conditions: ATCC 10145, 24 h.
Assay [6] relates to Micrococcus luteus. Briefly: Antibacterial activity against Micrococcus luteus ATCC 9341 after 24 hrs by serial dilution method. The format is functional. The settings on record: ATCC 9341, 24 h.
In assay [7] the test system is Staphylococcus aureus. Kind of assay: Antibacterial activity against Staphylococcus aureus ATCC 6538 after 24 hrs by serial dilution method. The class given is functional. As to conditions: ATCC 6538, 24 h.
For assay [8], the target named is Sodium-dependent dopamine transporter (Homo sapiens) (UniProt Q01959). Briefly: Inhibition of dopamine transporter (unknown origin) at 10 uM.
Sequence of Sodium-dependent dopamine transporter (Homo sapiens) (Q01959 whole entry): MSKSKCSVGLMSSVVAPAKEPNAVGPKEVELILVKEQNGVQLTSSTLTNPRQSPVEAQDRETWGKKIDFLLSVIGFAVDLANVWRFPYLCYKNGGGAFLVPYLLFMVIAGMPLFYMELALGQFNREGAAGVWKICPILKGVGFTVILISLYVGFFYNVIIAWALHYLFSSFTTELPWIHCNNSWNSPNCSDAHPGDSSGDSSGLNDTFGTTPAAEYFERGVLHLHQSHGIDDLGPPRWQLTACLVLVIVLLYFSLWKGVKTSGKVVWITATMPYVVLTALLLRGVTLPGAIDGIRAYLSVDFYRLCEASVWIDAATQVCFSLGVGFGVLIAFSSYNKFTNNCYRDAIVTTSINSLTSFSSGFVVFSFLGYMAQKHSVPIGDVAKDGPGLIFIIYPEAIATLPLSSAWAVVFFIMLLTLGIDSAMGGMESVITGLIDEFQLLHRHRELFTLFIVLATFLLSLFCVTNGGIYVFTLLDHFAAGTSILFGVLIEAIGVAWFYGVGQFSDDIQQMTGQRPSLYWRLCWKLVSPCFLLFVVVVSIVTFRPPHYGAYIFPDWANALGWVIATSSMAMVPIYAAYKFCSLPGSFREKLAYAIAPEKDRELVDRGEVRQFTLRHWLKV
In assay [9] the target is Sodium-dependent noradrenaline transporter (Homo sapiens) (UniProt P23975). Briefly: Inhibition of norepinephrine transporter (unknown origin) at 10 uM.
Sequence of Sodium-dependent noradrenaline transporter (Homo sapiens) (P23975 whole entry): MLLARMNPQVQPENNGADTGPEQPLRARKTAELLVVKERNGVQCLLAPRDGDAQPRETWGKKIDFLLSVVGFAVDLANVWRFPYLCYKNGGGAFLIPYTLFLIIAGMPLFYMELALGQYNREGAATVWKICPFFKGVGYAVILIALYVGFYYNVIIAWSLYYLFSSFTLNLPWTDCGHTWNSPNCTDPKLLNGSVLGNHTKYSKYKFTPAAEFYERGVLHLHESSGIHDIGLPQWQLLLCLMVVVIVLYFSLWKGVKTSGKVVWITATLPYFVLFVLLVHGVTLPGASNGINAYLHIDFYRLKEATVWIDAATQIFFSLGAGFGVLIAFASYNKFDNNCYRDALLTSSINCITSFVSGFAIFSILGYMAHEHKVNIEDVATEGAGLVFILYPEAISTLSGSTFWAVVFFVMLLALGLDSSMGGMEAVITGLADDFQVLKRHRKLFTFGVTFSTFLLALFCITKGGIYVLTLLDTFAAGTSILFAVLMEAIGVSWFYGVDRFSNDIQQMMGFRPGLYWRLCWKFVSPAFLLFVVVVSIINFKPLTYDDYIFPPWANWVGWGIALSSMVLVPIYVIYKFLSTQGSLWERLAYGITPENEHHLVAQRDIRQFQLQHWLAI
Assay [10] has as its target Sodium-dependent serotonin transporter (Homo sapiens) (UniProt P31645). Briefly: Inhibition of serotonin transporter (unknown origin) at 10 uM.
Assay [11] concerns the target Mu-type opioid receptor (Homo sapiens) (UniProt P35372). Briefly: Inhibition of mu opioid receptor (unknown origin) at 10 uM.
For the next assay, the system named is T-cell. Kind of assay: Inhibition of ConA-induced cell proliferation of BALB/c mouse T-lymphocytes assessed as reduction in [3H]thymidine incorporation incubated for 48 hrs by beta scintillation counting method. The class given is functional. On the technique in general: Dividing cells build labelled thymidine or BrdU into new DNA.
For the next assay, the system named is Pyricularia oryzae. Kind of assay: Antimicrobial activity against Pyricularia orizae. The format is functional.
Assay [12] relates to Escherichia coli. Kind of assay: Antibacterial activity against Escherichia coli assessed as inhibition zone at 50 ug/disk. As to conditions: read-out: IZ. The format is functional.
Assay [13] relates to Staphylococcus aureus. Briefly: Antibacterial activity against Staphylococcus aureus assessed as inhibition zone at 50 ug/disk. The format is functional. The settings on record: read-out: IZ.
Another assay deals with L5178Y. Briefly: Cytotoxicity against mouse L5178Y cells by MTT assay. The format is functional, cell-based.
Another assay relates to Mucor hiemalis. Kind of assay: Antifungal activity against Mucor hiemalis assessed as inhibition zone at 50 ug/disk. The class given is functional. The settings on record: read-out: IZ.
In a further assay the test system is Ruegeria atlantica. Briefly: […] activity against Ruegeria atlantica assessed as inhibition zone at 50 ug/disk. The format is functional. As to conditions: read-out: IZ.
A further assay deals with Saccharomyces cerevisiae. Briefly: Antifungal activity against Saccharomyces cerevisiae assessed as inhibition zone at 50 ug/disk. The class given is functional. The settings on record: read-out: IZ.

≈ marks a conversion by molar mass, not a printed value. Where only a bound is given, the exact number is not on record here.

The text below walks through data of ChEMBL document CHEMBL4265876, “Natural Products with Heteroatom-Rich Ring Systems” (J Nat Prod, 2017).

Sequence of Sodium-dependent serotonin transporter (Homo sapiens) (P31645 whole entry, looked up): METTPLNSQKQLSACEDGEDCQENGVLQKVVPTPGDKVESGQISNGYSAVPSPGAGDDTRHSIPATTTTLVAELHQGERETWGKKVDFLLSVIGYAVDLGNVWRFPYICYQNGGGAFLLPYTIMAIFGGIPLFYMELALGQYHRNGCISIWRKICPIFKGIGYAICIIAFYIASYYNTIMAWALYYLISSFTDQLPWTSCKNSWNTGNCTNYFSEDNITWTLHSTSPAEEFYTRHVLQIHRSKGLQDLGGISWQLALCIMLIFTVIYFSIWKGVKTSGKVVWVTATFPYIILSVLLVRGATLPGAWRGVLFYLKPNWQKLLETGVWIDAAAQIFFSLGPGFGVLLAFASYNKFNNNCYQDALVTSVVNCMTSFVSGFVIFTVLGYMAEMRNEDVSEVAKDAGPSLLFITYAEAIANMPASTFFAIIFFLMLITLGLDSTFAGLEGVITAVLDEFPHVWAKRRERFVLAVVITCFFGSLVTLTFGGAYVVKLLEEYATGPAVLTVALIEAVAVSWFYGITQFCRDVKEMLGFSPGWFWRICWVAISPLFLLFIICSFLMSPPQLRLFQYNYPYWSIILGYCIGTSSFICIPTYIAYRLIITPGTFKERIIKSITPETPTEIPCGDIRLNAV
Sequence of Mu-type opioid receptor (Homo sapiens) (P35372 whole entry): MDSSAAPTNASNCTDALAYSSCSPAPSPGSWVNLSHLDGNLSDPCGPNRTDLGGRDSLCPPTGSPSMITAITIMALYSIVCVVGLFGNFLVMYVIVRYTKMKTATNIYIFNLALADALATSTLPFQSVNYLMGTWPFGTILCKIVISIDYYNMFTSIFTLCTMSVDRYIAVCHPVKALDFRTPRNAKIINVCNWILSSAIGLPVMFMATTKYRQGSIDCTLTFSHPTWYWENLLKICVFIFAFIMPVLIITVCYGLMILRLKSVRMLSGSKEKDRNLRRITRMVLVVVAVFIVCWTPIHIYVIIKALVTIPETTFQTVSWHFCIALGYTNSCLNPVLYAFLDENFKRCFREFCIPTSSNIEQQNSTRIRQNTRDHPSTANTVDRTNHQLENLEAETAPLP

For the compound `COc1cc(CCN(C)C)c2c(c1O)SSC(C)S2` (stereo not drawn), the IC50 in the assay with V79 worked out at 0.14 µM; in the assay with L1210 [1], 0.7 µM.

For `CN[C@@H]1CSCON2CCc3c([nH]c4ccc(O)c(Br)c34)[C@H]12`, the Activity in the assay on L1210 [2] was determined as 100%. Besides, the zone of inhibition at 20 µg/disc with Micrococcus luteus [3] turned out to be 41 mm.

On to `COc1c(OC)c2c(c(CCN)c1SC)SSS2`, for which the IC50 in assay [4] was > 25 mg/L.

Consider `CC[C@H](C)C1=C(O)[N@+]2([O-])Oc3ccc(-c4c(O)c(O)c(-c5ccc(OC(C)=O)cc5)c(OC(C)=O)c4OC(C)=O)cc3O[C@@]2([C@@H](C)CC)C(=O)N1O`, for which the Activity in the assay with SF-268 came out at 96%.

For the compound `Cc1cc(=O)n2nc(CC(=O)c3ccccc3)nc2[nH]1` [ESSRAMYCIN], the MIC against Bacillus subtilis, in the assay on Escherichia coli [5], against Pseudomonas aeruginosa, with Micrococcus luteus [6] and in the assay on Staphylococcus aureus [7] was 1 to 8 mg/L (≈ 3.73 to 29.8 µM) each time.

In the case of `N=C(N)NCCCCCNc1noc(Cc2c[nH]c3ccccc23)n1`, the inhibition in assay [8] amounted to 96%; in assay [9], 45%; in assay [10] it was 16%; in assay [11] it was 97%.

Regarding `COC1=C[C@@H](C)O[C@@H](O[C@H]2CC[C@@]3(C)C(=CC[C@@H]4[C@@H]3CC[C@@]3(C)[C@H]4CC[C@]3(O)[C@H](C)O[C@H]3C[C@H]4OCO[C@@]5(C[C@@H](OC)[C@H](O[C@H]6C[C@H](O)[C@H](O[C@H]7C[C@@H](O)[C@H](O[C@H]8C[C@H](OC)[C@H](O[C@@H]9O[C@H](C)[C@H](O)[C@H](OC)[C@H]9OC(C)=O)[C@@H](C)O8)[C@@H](C)O7)[C@@H](C)O6)[C@@H](C)O5)O[C@@H]4[C@@H](C)O3)C2)C1=O`, the IC50 in the assay with T-cell lay within 0.29 to 1.97 µM.

`C1SCSSCS1` yielded an MIC with Pyricularia oryzae of 50 mg/L (≈ 294 µM).

For `COc1c(OC)c2c(c(CCN)c1SC)SSSSS2`, in assay [4], the IC50 was > 25 mg/L.

`COc1cc(CCN(C)C)c2sc3c(OC)c(OC)c(SC)c(CCN(C)C)c3ssc2c1O` [LISSOCLIBADIN 5]: the values for the zone of inhibition at 50 µg/disc in the assay with Escherichia coli [12] and in the assay with Staphylococcus aureus [13] were 11.6 mm and 15.8 mm, respectively.

In the case of `CO[C@H]1C[C@H](O[C@H]2[C@@H](OC)C[C@H](O[C@H]3[C@H](O)C[C@H](O[C@H]4[C@@H](OC)C[C@H](O[C@@H]5[C@@H](C)O[C@@]6(C[C@H]5OC)OCO[C@@H]5C[C@H](O[C@@H](C)[C@@]7(O)CC[C@H]8[C@@H]9CC=C%10C[C@@H](O)CC[C@]%10(C)[C@H]9CC[C@@]87C)O[C@H](C)[C@H]5O6)O[C@@H]4C)O[C@@H]3C)O[C@@H]2C)O[C@H](C)[C@H]1OC(C)=O`, the IC50 in the assay with T-cell lay within 0.29 to 1.97 µM.

As for `Nc1nsc(C(=O)c2ccc(O)cc2)n1`, in the assay on L5178Y, the IC50 was 0.41 µM.

With `COc1c(OC)c2c(c(CCN(C)C)c1SC)SSS2`, the results for the IC50 (in the assay on V79; in assay [4]) were 0.19 µM and > 25 mg/L, respectively. Also, the zone of inhibition at 50 µg/disc with Mucor hiemalis, in the assay with Ruegeria atlantica, with Escherichia coli [12], with Staphylococcus aureus [13] and in the assay on Saccharomyces cerevisiae was 10.3 to 32.4 mm in each case.

For `CC[C@H](C)C1=C(OC(C)=O)[N@+]2([O-])Oc3ccc(-c4c(O)c(O)c(-c5ccc(OC(C)=O)cc5)c(OC(C)=O)c4OC(C)=O)cc3O[C@@]2([C@@H](C)CC)C(=O)N1O`, the Activity in the assay with SF-268 came to 93%.

Turning to `CC[C@H](C)C1=C(O)[N@@+]2([O-])Oc3ccc(-c4c(O)c(O)c(-c5ccc(OC(C)=O)cc5)c(OC(C)=O)c4OC(C)=O)cc3O[C@@]2([C@@H](C)CC)C(=O)N1O`, in the assay on SF-268, the Activity came to 95%.

With `COc1cc(CCN(C)C)c2sc3c(O)c(OC)cc(CCN(C)C)c3ssc2c1O` [LISSOCLIBADIN 4], the zone of inhibition at 50 µg/disc in the assay on Escherichia coli [12] was determined as 15.7 mm; with Staphylococcus aureus [13] it was 13.1 mm.

As a reminder, the IC50 is the concentration that gives 50% inhibition. As usually defined, the MIC is the smallest concentration in the dilution series that meets the test's criterion for growth inhibition. A higher MIC goes with weaker potency. The inhibition is the change of the read-out against control, counted positive when it falls.
